Drawing on patent publication US20210392895A1, “NOVEL OXADIAZOLES” (PI INDUSTRIES LIMITED, priority 2018, published 2021), this text covers inhibition of growth and pest or weed control for 20 molecules.

Counter-ions that a name gives are not always drawn.

Assay [1] deals with Pyricularia oryzae. Briefly: microbe, parasite or virus in culture. The format is cell-based. To be noted: 168 h, read-out: control.
The subject of assay [2] is Alternaria solani. Briefly: Alternaria solani (early blight of tomato/potato) in vitro test, radial growth on Potato Dextrose Agar. To be noted: 168 h, compared to the untreated check, radial growth after seven days, read-out: control. The assay is classed as cell-based.
In assay [3] the test system is Phakopsora pachyrhizi. Briefly: Phakopsora pachyrhizi test in soybean (greenhouse, preventive activity, disease severity rating). The format is in vivo. To be noted: preventive spray on soybean, compared to the untreated check. The method in brief: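 Greenhouse-raised young soybean plants sprayed with compound at stated rates, then inoculated one day later with 2.1×10^6 P. pachyrhizi spores and held at 25° C, 90% RH. Disease severity (0-100%) rated visually 3, 7, 10 and 15 days after application; % control calculated versus untreated plants.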

Take `O=C(c1cccnc1)N1CC[C@H](Oc2ccc(-c3noc(C(F)(F)F)n3)cc2F)C1` [Compound 58, (S)-(3-(2-fluoro-4-(5-(trifluoromethyl)-1,2,4-oxadiazol-3-yl)phenoxy)pyrrolidin-1-yl)(pyridin-3-yl)methanone]: the inhibition of growth at 300 ppm in assay [1] and in assay [2] was over 70% in each case. With `COc1cccc(C(=O)N2CC(Oc3ccc(-c4noc(C(F)(F)F)n4)cc3)C2)c1` [Compound 17, (3-methoxyphenyl)(3-(4-(5-(trifluoromethyl)-1,2,4-oxadiazol-3-yl)phenoxy)azetidin-1-yl)methanone], in assay [1], the inhibition of growth at 300 ppm is over 70%. The molecule also yielded a pest or weed control at 500 ppm in assay [3] of over 70%. As for `CC(C)(C)OC(=O)N1CC[C@H](Oc2ccc(-c3noc(C(F)(F)F)n3)cc2F)C1` [Compound 60, tert-butyl-(S)-3-(2-fluoro-4-(5-(trifluoromethyl)-1,2,4-oxadiazol-3-yl)phenoxy)pyrrolidine-1-carboxylate], the inhibition of growth at 300 ppm in assay [1] is over 70%. Besides, the pest or weed control at 500 ppm in assay [3] is over 70%.

In the case of `O=C(c1ccccc1F)N1CCC(Oc2cccc(-c3noc(C(F)(F)F)n3)c2)C1` (stereo not drawn) [Compound 132, (2-fluorophenyl)(3-(3-(5-(trifluoromethyl)-1,2,4-oxadiazol-3-yl)phenoxy)pyrrolidin-1-yl)methanone], the inhibition of growth at 300 ppm in assay [2] was over 70%. Turning to `O=C(c1ccccc1F)N1CC[C@H](Oc2ccc(-c3noc(C(F)(F)F)n3)cn2)C1` [Compound 45, (S)-(2-fluorophenyl)(3-((5-(5-(trifluoromethyl)-1,2,4-oxadiazol-3-yl)pyridin-2-yl)oxy)pyrrolidin-1-yl)methanone], the inhibition of growth at 300 ppm in assay [1] is over 70%. The pest or weed control at 500 ppm in assay [3] was over 70%.

`FC(F)(F)c1nc(-c2ccc(N(c3ccc(-c4noc(C(F)(F)F)n4)cc3)C3CNC3)cc2)no1` [Compound 86, N,N-bis(4-(5-(trifluoromethyl)-1,2,4-oxadiazol-3-yl)phenyl)azetidin-3-amine Hydrochloride] had a pest or weed control at 500 ppm in assay [3] of over 70%. For the same molecule, the inhibition of growth at 300 ppm in assay [2] is over 70%. As to `COc1ccc(CC(=O)N2CC[C@H](Oc3ccc(-c4noc(C(F)(F)F)n4)cc3)C2)cc1OC` [Compound 5, (S)-2-(3,4-dimethoxyphenyl)-1-(3-(4-(5-(trifluoromethyl)-1,2,4-oxadiazol-3-yl)phenoxy)pyrrolidin-1-yl)ethan-1-one], in assay [1], the inhibition of growth at 300 ppm was over 70%. The molecule also returned a pest or weed control at 500 ppm in assay [3] of over 70%.

`Cc1ccc(C(=O)N2CC(N(C)c3ccc(-c4noc(C(F)(F)F)n4)cc3)C2)cc1` [Compound 97, (3-(methyl(4-(5-(trifluoromethyl)-1,2,4-oxadiazol-3-yl)phenyl)amino)azetidin-1-yl)(p-tolyl)methanone]: the inhibition of growth at 300 ppm in assay [1] and in assay [2] was over 70% throughout. In the case of `O=C(c1ccccc1F)N1CC[C@H](Oc2ccc(-c3noc(C(F)(F)F)n3)cc2)C1` [Compound 6, (S)-(2-fluorophenyl)(3-(4-(5-(trifluoromethyl)-1,2,4-oxadiazol-3-yl)phenoxy)pyrrolidin-1-yl)methanone], the inhibition of growth at 300 ppm in assay [2] was over 70%. With `COc1ccc(C(=O)N2CC(N(C)c3ccc(-c4noc(C(F)(F)F)n4)cc3)C2)cc1` [Compound 98, (4-methoxyphenyl)(3-(methyl(4-(5-(trifluoromethyl)-1,2,4-oxadiazol-3-yl)phenyl)amino)azetidin-1-yl)methanone], the inhibition of growth at 300 ppm in assay [1] and in assay [2] was over 70% each time. In the case of `COc1ccc(C(=O)N2CC[C@H](Oc3ccc(-c4noc(C(F)(F)F)n4)cc3)C2)cn1` [Compound 56, (S)-(6-methoxypyridin-3-yl)(3-(4-(5-(trifluoromethyl)-1,2,4-oxadiazol-3-yl)phenoxy)pyrrolidin-1-yl)methanone], in assay [1], the inhibition of growth at 300 ppm was over 70%. In assay [3], this molecule had a pest or weed control at 500 ppm of over 70%. For the molecule `COc1cccc(C(=O)N2CC[C@H](Oc3ccc(-c4noc(C(F)(F)F)n4)cc3)C2)c1` [Compound 1, (S)-(3-methoxyphenyl)(3-(4-(5-(trifluoromethyl)-1,2,4-oxadiazol-3-yl)phenoxy)pyrrolidin-1-yl)methanone], in assay [3], the pest or weed control at 500 ppm is over 70%. Besides, in assay [2], the inhibition of growth at 300 ppm is over 70%.

As for `O=C(Cc1ccccc1)N1CC[C@H](Oc2ccc(-c3noc(C(F)(F)F)n3)cc2)C1` [Compound 11, (S)-2-phenyl-1-(3-(4-(5-(trifluoromethyl)-1,2,4-oxadiazol-3-yl)phenoxy)pyrrolidin-1-yl)ethan-1-one], the inhibition of growth at 300 ppm in assay [1] was over 70%. The molecule further registered a pest or weed control at 500 ppm in assay [3] of over 70%. Consider `O=C(c1ccc(F)cc1)N1CCC(Oc2cccc(-c3noc(C(F)(F)F)n3)c2)C1` (stereo not drawn) [Compound 134, (4-fluorophenyl)(3-(3-(5-(trifluoromethyl)-1,2,4-oxadiazol-3-yl)phenoxy)pyrrolidin-1-yl)methanone], for which the inhibition of growth at 300 ppm in assay [1] and in assay [2] was over 70% in each case. With `COc1cccc(CC(=O)N2CC[C@H](Oc3ccc(-c4noc(C(F)(F)F)n4)cc3)C2)c1` [Compound 24, (S)-2-(3-methoxyphenyl)-1-(3-(4-(5-(trifluoromethyl)-1,2,4-oxadiazol-3-yl)phenoxy)pyrrolidin-1-yl)ethan-1-one], the pest or weed control at 500 ppm in assay [3] is over 70%. Besides, the inhibition of growth at 300 ppm in assay [2] is over 70%. In the case of `O=C(c1cccc(F)c1)N1CCC(Oc2cccc(-c3noc(C(F)(F)F)n3)c2)C1` (stereo not drawn) [Compound 133, (3-fluorophenyl)(3-(3-(5-(trifluoromethyl)-1,2,4-oxadiazol-3-yl)phenoxy)pyrrolidin-1-yl)methanone], the inhibition of growth at 300 ppm in assay [1] and in assay [2] was over 70% each time.

`O=C(c1ccccc1)N1CC[C@@H](Sc2ccc(-c3noc(C(F)(F)F)n3)cc2)C1` [Compound 177, (R)-phenyl(3-((4-(5-(trifluoromethyl)-1,2,4-oxadiazol-3-yl)phenyl)thio)pyrrolidin-1-yl)methanone]: the inhibition of growth at 300 ppm in assay [1] was over 70%.

Regarding `CN(c1ccc(-c2noc(C(F)(F)F)n2)cc1)C1CN(C(=O)Cc2ccccc2)C1` [Compound 99, 1-(3-(methyl(4-(5-(trifluoromethyl)-1,2,4-oxadiazol-3-yl)phenyl)amino)azetidin-1-yl)-2-phenylethan-1-one], the inhibition of growth at 300 ppm in assay [1] and in assay [2] was over 70% throughout. With `CCS(=O)(=O)N1CC[C@H](Oc2ccc(-c3noc(C(F)(F)F)n3)cc2F)C1` [Compound 61, (S)-3-(4-((1-(ethylsulfonyl)pyrrolidin-3-yl)oxy)-3-fluorophenyl)-5-(trifluoromethyl)-1,2,4-oxadiazole], in assay [1], the inhibition of growth at 300 ppm was over 70%. This molecule returned a pest or weed control at 500 ppm in assay [3] of over 70%. Consider `O=C(c1ccncc1)N1CC[C@@H](Oc2ccc(-c3noc(C(F)(F)F)n3)cn2)C1` [Compound 78, (R)-pyridin-4-yl(3-((5-(5-(trifluoromethyl)-1,2,4-oxadiazol-3-yl)pyridin-2-yl)oxy)pyrrolidin-1-yl)methanone], for which, in assay [1], the inhibition of growth at 300 ppm is over 70%.
